In patent US20080182851A1, “ACETYLENE DERIVATIVES AS STEAROYL COA DESATURASE INHIBITORS” (Glenmark Pharmaceuticals S.A., priority 2006, published 2008):
Where two headings read alike, the source gives them in different places.

Target: T1, human SCD1 enzyme (Homo sapiens, UniProt O00767)
T1 sequence (O00767 1-359): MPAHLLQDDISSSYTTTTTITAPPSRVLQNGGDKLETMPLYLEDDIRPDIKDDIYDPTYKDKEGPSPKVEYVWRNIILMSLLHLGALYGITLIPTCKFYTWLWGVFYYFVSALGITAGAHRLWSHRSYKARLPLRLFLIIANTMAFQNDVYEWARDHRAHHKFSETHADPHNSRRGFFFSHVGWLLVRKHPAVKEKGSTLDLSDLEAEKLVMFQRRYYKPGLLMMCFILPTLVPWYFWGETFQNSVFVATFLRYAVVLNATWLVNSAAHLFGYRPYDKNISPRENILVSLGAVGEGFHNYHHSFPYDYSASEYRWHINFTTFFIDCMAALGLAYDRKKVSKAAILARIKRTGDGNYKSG
Assay: Tritiated water release assay (conversion of radiolabeled stearoyl-CoA to oleoyl-CoA)
Type: biochemical
Conditions: 10 μM concentration of test compounds, microsomal SCD1, 3H stearoyl CoA, 37° C. 30 minutes, percent of control reaction
Description: The in-vitro activity of the compounds of the present invention against stearoyl coenzyme desaturase was determined by following conversion of radiolabeled-stearoyl-CoA to oleoyl-CoA using human SCD1 enzyme using a previously published assay procedure with some modifications (Barbara R Talamo and Konrad Bloch, Analytical Biochemistry, 1969, 29, 300-304). This assay protocol is only illustrative and is not meant to limit to the scope of the present invention.
In this assay the microsomal SCD1 enzyme desaturates its substrate, Stearoyl CoA (purchased from American Radiochemicals Ltd.) which is tritiated at C9 and C10 positions. Test compounds were dissolved in dimethylsulfoxide and tested at 10 μM final concentration. Before substrate addition, the test compound or standard reference compound (conjugated linoleic acid at 100 μM final concentration) were pre-incubated in reaction buffer with the enzyme for 10 minutes at 30° C. with shaking. Reaction buffer was prepared as described in literature (Obukowicz et al. JPET, 1998, 287, 157-166) except that the MgCl2, ATP (purchased from Sigma) and CoA (purchased from Sigma) concentrations were changed to 4.9 mM, 7.2 mM and 0.54 mM respectively. The desaturation reaction was initiated by addition of 0.5 μCi of ^3H stearoyl CoA and incubated at 37° C. for 30 minutes with shaking. A control reaction was set without any test compound/reference inhibitor to capture maximum enzymatic activity in the assay. Inhibition of enzyme activity was calculated as a percent of this control reaction giving maximum catalysis and the results are given in Table 5.
Table 5: Tritiated water release assay at 10 μM substrate concentration *Conjugated Linoleic acid was used as a reference standard

Row | Structure (SMILES) | inhibition at 10 µM (read-out: % Inhibition) [%] | inhibition at 10 µM [%]
1 | [O-][n+]1cccc(C#Cc2ccc(N3CCC(Oc4ccccc4F)CC3)nc2)c1 [Example 74] | 44 | 
2 | CC(=O)Oc1ccc(C#Cc2ccc(N3CCC(Oc4ccccc4F)CC3)nn2)cc1 [Example 75, 4-[{6-[4-(2-Fluorophenoxy)piperidin-1-yl]pyridazin-3-yl}ethynyl]phenyl acetate] | 88 | 
3 | Oc1ccc(C#Cc2ccc(N3CCC(Oc4ccccc4F)CC3)nn2)cc1 [Example 76, 4-(2-{6-[4-(2-Fluorophenoxy)piperidino]-3-pyridazinyl}-1-ethynyl)phenol] | 100 | 
4 | Oc1ccc(C#Cc2ccc(N3CCC(Oc4ccccc4F)CC3)nn2)cc1 [Example 77] |  | 97
5 | Fc1ccccc1OC1CCN(c2ccc(C#Cc3ccc(OCCN4CCCCC4)cc3)nn2)CC1 [Example 78] | 43 | 
6 | Fc1ccccc1OC1CCN(c2ccc(C#Cc3ccc(OCCN4CCOCC4)cc3)nn2)CC1 [Example 79] | 37 | 
7 | O=C(Oc1ccc(C#Cc2ccc(N3CCC(Oc4ccccc4F)CC3)nn2)cc1)c1ccco1 [Example 80, 4-{6-[4-(2-Fluorophenoxy)piperidin-1-yl]pyridazin-3-yl}ethynylphenyl-2-furoate] | 86 | 
8 | Oc1ccc(C#Cc2ccc(N3CCC(Oc4ccc(Br)cc4F)CC3)nn2)cc1 [Example 81] | 95 | 
9 | Oc1ccc(C#Cc2ccc(N3CCC(Oc4ccccc4F)CC3)nn2)cc1F [Example 82] | 98 | 
10 | COc1cc(C#Cc2ccc(N3CCC(Oc4ccccc4F)CC3)nn2)ccc1O [Example 83, 2-Methoxy-4-{6-[4-(2-fluorophenoxy)piperidin-1-yl]pyridazin-3-yl}ethynylphenol] | 93 | 
11 | Fc1ccccc1OC1CCN(c2ccc(C#Cc3ccc(C(F)(F)F)cc3)nn2)CC1 [Example 84, 3-[4-(2-Fluorophenoxy)piperidino]-6-[2-(4-trifluoromethylphenyl)-1-ethynyl]pyridazine] | 37 | 
12 | CC(=O)Oc1cccc(C#Cc2ccc(N3CCC(Oc4ccccc4F)CC3)nn2)c1 [Example 85] | 97 | 
13 | Oc1cccc(C#Cc2ccc(N3CCC(Oc4ccccc4F)CC3)nn2)c1 [Example 86, 3-(2-{6-[4-(2-Fluorophenoxy)piperidino]-3-pyridazinyl}-1-ethynyl)phenol] | 100 | 
14 | CC(C)(C)C(=O)Oc1cccc(C#Cc2ccc(N3CCC(Oc4ccccc4F)CC3)nn2)c1 [Example 87, 3-[{6-[4-(2-Fluorophenoxy)piperidin-1-yl]pyridazin-3-yl}ethynyl]phenyl pivalate] | 27 | 
15 | N#Cc1ccccc1OC1CCN(c2ccc(C#Cc3cccc(O)c3)nn2)CC1 [Example 88] | 95 | 
16 | Fc1cccc(C#Cc2ccc(N3CCC(Oc4ccccc4C(F)(F)F)CC3)nn2)c1 [Example 89, 3-[2-(3-Fluorophenyl)-1-ethynyl]-6-[4-(2-trifluoromethylphenoxy)piperidino]pyridazine] | 82 | 
17 | CC(=O)Oc1cccc(C#Cc2ccc(N3CCC(Oc4ccccc4C(F)(F)F)CC3)nn2)c1 [Example 90, 3-(2-{6-[4-(2-Trifluoromethylphenoxy)piperidino]-3-pyridazinyl}-1-ethynyl)phenyl acetate] | 95 | 
18 | Oc1cccc(C#Cc2ccc(N3CCC(Oc4ccccc4C(F)(F)F)CC3)nn2)c1 [Example 91, 3-(2-{6-[4-(2-Trifluoromethylphenoxy)piperidino]-3-pyridazinyl}-1-ethynyl)phenol] | 100 | 
19 | CC(=O)Oc1ccc(C#Cc2ccc(N3CCC(Oc4cc(Cl)ccc4Cl)CC3)nn2)cc1 [Example 92, 4-[{6-[4-(2,5-Dichlorophenoxy)piperidin-1-yl]pyridazin-3-yl}ethynyl]phenyl acetate] | 97 | 
20 | Oc1ccc(C#Cc2ccc(N3CCC(Oc4cc(Cl)ccc4Cl)CC3)nn2)cc1 [Example 93, 4-[{6-[4-(2,5-Dichlorophenoxy)piperidin-1-yl]pyridazin-3-yl}ethynyl]phenol] | 96 | 
21 | COc1c(F)ccc(C#Cc2ccc(N3CCC(Oc4ccccc4F)CC3)nn2)c1F [Example 94, 3-[(2,4-Difluoro-3-methoxyphenyl)ethynyl]-6-[4-(2-fluorophenoxy)piperidin-1-yl]pyridazine] | 12 | 
22 | [O-][n+]1cccc(C#Cc2ccc(N3CCC(Oc4ccccc4F)CC3)nn2)c1 [Example 95] | 24 | 
23 | NC(=O)c1cccc(C#Cc2ccc(N3CCC(Oc4cccnc4)CC3)nn2)c1 [Example 96] | 30 | 
24 | Cc1cccc(C#Cc2cnc(N3CCC(Oc4ccccc4F)CC3)nc2)c1 [Example 97] | 36 | 
25 | Oc1cccc(C#Cc2cnc(N3CCC(Oc4ccccc4F)CC3)nc2)c1 [Example 98] | 95 | 
26 | CC(=O)Oc1ccc(C#Cc2ccc(NCCOc3ccccc3F)nn2)cc1 [Example 99] | 55 | 
27 | Oc1ccc(C#Cc2ccc(NCCOc3ccccc3F)nn2)cc1 [Example 100] | 63 | 
28 | CC(=O)Oc1ccc(C#Cc2ccc(N3CCC(Nc4ccccc4F)CC3)nn2)cc1 [Example 101] | 82 | 
29 | Oc1ccc(C#Cc2ccc(N3CCC(Nc4ccccc4F)CC3)nn2)cc1 [Example 102, 4-{6-[4-(2-Fluorophenylamino)piperidin-1-yl]pyridazin-3-yl}ethynylphenol] | 96 | 
